Patent US8329421B2, “Methods of predicting response of a neoplasm to an EGFR inhibitor and detecting interactions between EGFR and an EGFR regulatory protein” (Ventana Medical Systems, Inc., priority 2007, dated 2012)
Read-outs that look alike come from different tables or passages of the source.

Assays:
breast cancer patients = test: Response of breast cancer patients to lapatinib therapy by 5B7/3C6 category (Example 10); type: in vivo, human; conditions: 1250-1500 mg/day orally
Procedure: Tissue arrays containing biopsy samples from at least 100 breast cancer patients are obtained. Each patient is treated with lapatinib (TYKERB™) (HER1 (EGFR)/HER2-inhibitor) with a dosage of 1250-1500 mg/day given orally. Each patient has post-therapy follow-up for at least 20 months. Each biopsy sample is fixed in a standard fixative and paraffin embedded. Sections of each biopsy sample (e.g., 5 μm thick) are cut and arrayed on positively charged glass slides. The slides are stained with an RD-binding molecule (e.g., clone 5B7) and an ED-binding molecule (e.g., clone 3C6) according to the protocols in Example 2. The resulting stained array slides are scored by light microscopy by a pathologist according to the following criteria:
The score for each case is recorded in a database comparing the score for each binding molecule (e.g., 5B7 or 3C6). Approximately 20% of cases are expected to fall into category 1, 16% in category 2, 3% in category 3 and 61% in category 4. Patient outcome is directly related to the scoring category as indicated in Table 2 for an ID-based therapy.

clone 5B7 = test: Peptide inhibition study (epitope mapping) on EGFR-positive lung squamous cell carcinoma; type: binding; conditions: 1000-fold molar excess of peptide, pre-incubated 1 hour at room temperature
Text: The epitope for the EGFR regulatory-domain-specific monoclonal antibody, clone 5B7, was mapped by peptide inhibition studies. Because the L2G Peptide was used as the immunogen and was used to screen for positive clones, it was known that the 5B7 epitope must be within that 19-amino acid sequence (see SEQ ID NO: 2). The L2G Peptide, a peptide containing the 13 C-terminal amino acid residues of the L2G Peptide, and a peptide containing the six N-terminal amino acid residues of the L2G Peptide plus three additional N-terminal residues (i.e., QIS) corresponding to the respective positions in the human EGFR sequence. The peptides were synthesized by Genemed Synthesis, Inc. (South San Francisco, Calif.).
A known EGFR-positive lung squamous cell carcinoma was chosen for the peptide inhibition study. The 5B7 antibody was pre-incubated with each peptide for 1 hour at room temperature before application to the tissue. A 1000-fold molar excess of peptide compared to antibody was used.

NSCLC cancer patients [1] = test: Response of NSCLC patients to TARCEVA therapy by 5B7/3C6 category (Example 7); type: in vivo, human; conditions: 150 mg/day orally
Procedure: (§1) Tissue arrays containing biopsy samples from at least 100 NSCLC cancer patients are obtained. Each patient is treated with TARCEVA™ (EGFR inhibitor) therapy with a dosage of 150 mg/day given orally. Each patient has post-therapy follow-up for up to 5 years. Each biopsy sample is fixed in 10% NBF and paraffin embedded. Five (5) micron sections of each biopsy sample are cut and arrayed on positively charged glass slides. The slides are stained with an RD-binding molecule (e.g., clone 5B7) and an ED-binding molecule (e.g., clone 3C6) according to the protocols in Example 2. The resulting stained array slides are scored by light microscopy by a pathologist according to the following criteria:
(§2) The score for each case is recorded in a database comparing the score for each binding molecule (e.g., 5B7 or 3C6). Approximately 65% of cases are expected to fall into category 1, 19% in category 2, <1% in category 3 and 15% in category 4. Patient outcome is directly related to the scoring category as indicated in Table 2 for an ID-based therapy.

[2] = test system: non-small cell lung cancer; conditions: cited from earlier work
HCC cancer patients = test: Response of HCC patients to IRESSA therapy by 5B7/3C6 category (Example 11); type: in vivo, human; conditions: 200-500 mg/day orally
Procedure: Tissue arrays containing biopsy samples from at least 100 HCC cancer patients are obtained (see, for example, samples collected in JS 0414, “A Pilot Study of Adjuvant Therapy of Gefitinib (Iressa, ZD1839) in Patients with Resectable Hepatocellular Carcinoma”, ClinicalTrials.gov Identifier No. NCT00228501). Each patient is treated with IRESSA™ (EGFR-inhibitor) therapy with a dosage of 200-500 mg/day given orally. Each patient has post-therapy follow-up for at least 12 months. Each biopsy sample is fixed in a standard fixative (e.g., 10% NBF) and paraffin embedded. Sections of each biopsy sample (e.g., 5 μm thick) are cut and arrayed on positively charged glass slides. The slides are stained with an RD-binding molecule (e.g., clone 5B7) and an ED-binding molecule (e.g., clone 3C6) according to the protocols in Example 2. The resulting stained array slides are scored by light microscopy by a pathologist according to the following criteria:
The score for each case is recorded in a database comparing the score for each binding molecule (e.g., 5B7 or 3C6). Approximately 60% of cases are expected to fall into category 1, 13% in category 2, 5% in category 3 and 22% in category 4. Patient outcome is directly related to the scoring category as indicated in Table 2 for an ID-based therapy.

NSCLC cancer patients [3] = test: Response of NSCLC patients to IRESSA therapy by 5B7/3C6 category (Example 6); type: in vivo, human; conditions: 250 mg/day orally
Procedure: as §1, with “IRESSA™ (EGFR-inhibitor)” for “TARCEVA™ (EGFR inhibitor)”, “250” for “150”
as §2

[4] = NSCLC patients in categories 1 and 3
[5] = NSCLC patients in categories 2 and 4

## CS(=O)(=O)CCNCc1ccc(-c2ccc3ncnc(Nc4ccc(OCc5cccc(F)c5)c(Cl)c4)c3c2)o1 [lapatinib]
Breast cancer patients; breast cancer patients in categories 1 and 3
  patient response to therapy: objective response
Breast cancer patients; breast cancer patients in categories 2 and 4
  patient response to therapy: not significantly respond

## Peptide 1: amino acids 1164-1175 of SEQ ID NO: 1 (QISLDNPDYQQD; listed as Homo sapiens)
Clone 5B7
  inhibition of 5B7 binding to tissue: partial inhibition

## C#Cc1cccc(Nc2ncnc3cc(OCCOC)c(OCCOC)cc23)c1 [erlotinib]
NSCLC cancer patients [1]; [4]
  patient response to therapy: objective response
NSCLC cancer patients [1]; [5]
  patient response to therapy: not significantly respond

## LDNPDYQQDFFPKEAKPNG (listed as Homo sapiens) [Peptide 3]
Clone 5B7
  inhibition of 5B7 binding to tissue: completely inhibited

## COc1cc2ncnc(Nc3ccc(F)c(Cl)c3)c2cc1OCCCN1CCOCC1 [gefitinib]
[2]; 250 gefitinib per day
  NSCLC patients who responded to the drug: about 10%
[2]; 500 gefitinib per day
  NSCLC patients who responded to the drug: about 20%
HCC cancer patients; HCC patients in categories 1 and 3
  patient response to therapy: objective response
HCC cancer patients; HCC patients in categories 2 and 4
  patient response to therapy: not significantly respond
NSCLC cancer patients [3]; [4]
  patient response to therapy: objective response
NSCLC cancer patients [3]; [5]
  patient response to therapy: not significantly respond

## Peptide 2: amino acids 7-19 of SEQ ID NO: 2; 13 C-terminal amino acid residues of the L2G Peptide (QQDFFPKEAKPNG; listed as Homo sapiens)
Clone 5B7
  inhibition of 5B7 binding to tissue: complete inhibition
